The values below come from US5036071A, “Derivatives of purine” (Medivir AB, priority 1984, dated 1991).

Molecules are shown by their SMILES.

One series has as its system HSV-2 strain 91075. Put plainly: Treatment of a systemic HSV-2 infection in mice (mortality). It counts as in vivo. Particulars: oral; for Mortality (%) day 6 / Mortality (%) day 9 / Mortality (%) day 12 / Mortality (%) day 15: twice daily for ten days; for Mortality (%) day 6: day 6 post infection; for Mortality (%) day 9: day 9 post infection; for Mortality (%) day 12: day 12 post infection; for Mortality (%) day 15: day 15 post infection. How it is done: In the following the compound (R)-(+)-9-(3,4-dihydroxybutyl)guanine is denoted VIS 743, the compound (R)-2-amino-9-(3,4-dihydroxybutyl)purine is denoted VSA 305 and Herpes simplex type 2 virus is denoted HSV-2. Mice infected systemically with HSV-2 strain 91075 (10^4 pfu infected i.p.) were treated orally with VIS 743 or VSA 305 twice daily for ten days. Treatment started 1 hour post infection. Mortality was determined on several days post infection.

The nature of series [1]: Plasma concentration of VIS 743 in mice after giving VIS 743 or VSA 305 orally. It counts as in vivo. Particulars: 15 mg/kg p.o. The procedure: Mice were given VIS 743 or VSA 305 p.o. Each compound was given in a dosage of 15 mg/kg. The plasma concentrations of VIS 743 were determined by analysis on HPLC, 30, 60, 90 and 120 min after dosage. Each concentration was determined as an average of results from two mice.

For `Nc1nc2c(ncn2CC[C@@H](O)CO)c(=O)[nH]1` [VIS 743, (R)-(+)-9-(3,4-dihydroxybutyl)guanine], in the series on HSV-2 strain 91075 (15 mg/kg), the “Mortality (%) day 6” value worked out at 40%, the “Mortality (%) day 9” value is 80%, the “Mortality (%) day 12” value amounted to 100% and the “Mortality (%) day 15” value amounted to 100%. Also, in the series on HSV-2 strain 91075 (30 mg/kg), the “Mortality (%) day 6” value turned out to be 0%, the “Mortality (%) day 9” value worked out at 28%, the “Mortality (%) day 12” value is 45% and the “Mortality (%) day 15” value was determined as 53%.

Take `Nc1ncc2ncn(CC[C@@H](O)CO)c2n1` [VSA 305, (R)-2-amino-9-(3,4-dihydroxybutyl)purine]: in the series on HSV-2 strain 91075 (15 mg/kg), the “Mortality (%) day 6” value is recorded as 0%, the “Mortality (%) day 9” value amounted to 45%, the “Mortality (%) day 12” value is 50% and the “Mortality (%) day 15” value is 53%. Moreover, in the series on HSV-2 strain 91075 (VSA 305 15 mg/kg vs VIS 743 30 mg/kg), the “effect of a low dose (15 mg/kg) compared with a high dose of VIS 743 (30 mg/kg)” value is listed as “comparable”. Besides, the “biological transformation to VIS 743” value in series [1] is listed as “biologically transformed to VIS 743”.
